Test results from patent US20160220557A1, “USE OF ACETYL-COA CARBOXYLASE INHIBITORS FOR TREATING ACNE VULGARIS” (PFIZER INC., priority 2013, published 2016).

Experiments:
CYP2D6 = biological target: T1, CYP2D6 (Homo sapiens, UniProt P10635); assay: P450 inhibition in liver microsomes with probe substrates; format: in vitro ADME
T1 construct: from tissue; host or cells: liver microsomes

CYP2C19 = biological target: T2, CYP2C19 (Homo sapiens, UniProt P33261); assay: as above; format: in vitro ADME
T2 construct: from tissue; host or cells: liver microsomes

CYP2B6 = biological target: T3, CYP2B6 (Homo sapiens, UniProt P20813); assay: as above; format: in vitro ADME
T3 construct: from tissue; host or cells: liver microsomes
T3 sequence (P20813 1-491): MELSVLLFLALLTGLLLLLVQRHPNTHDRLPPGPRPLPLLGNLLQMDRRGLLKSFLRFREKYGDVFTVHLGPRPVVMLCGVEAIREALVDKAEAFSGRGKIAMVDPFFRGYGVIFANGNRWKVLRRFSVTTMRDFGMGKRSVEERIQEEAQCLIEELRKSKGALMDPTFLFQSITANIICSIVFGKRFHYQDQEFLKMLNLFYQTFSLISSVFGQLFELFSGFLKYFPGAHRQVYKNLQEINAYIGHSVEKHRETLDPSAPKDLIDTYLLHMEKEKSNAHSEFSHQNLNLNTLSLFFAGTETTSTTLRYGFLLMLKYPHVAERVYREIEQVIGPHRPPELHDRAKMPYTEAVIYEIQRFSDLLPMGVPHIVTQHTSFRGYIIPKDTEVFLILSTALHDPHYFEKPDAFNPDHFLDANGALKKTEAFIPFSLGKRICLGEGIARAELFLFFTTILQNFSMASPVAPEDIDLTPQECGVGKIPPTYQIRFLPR

[1] = biological target: T4, recombinant human ACC1 (rhACC1) (Homo sapiens, UniProt Q13085, DEL44-44); assay: Transcreener ADP detection FP assay, recombinant human ACC1 inhibition; format: biochemical; conditions: recombinant human ACC1, 50 μM ATP; read-out: Transcreener Assay hACC1 IC50
T4 construct: His6 (N); made in house; host or cells: SF9 insect cells (baculovirus)

[2] = system: de novo lipogenesis (DNL); assay: Suppression of DNL in healthy human volunteers; format: in vivo; conditions: dose-dependent
[3] = in vivo
CYP3A = CYP3A (Homo sapiens, UniProt P08684); assay: in vitro; conditions: microsomes
[4] = system: de novo lipogenesis in ear skin and liver; assay: Effect of oral and topical ACCi on DNL (14C-acetate incorporation) in Syrian hamsters; format: in vivo, Syrian hamster; conditions: topical 100 mg/ml single dose, vs. vehicle
Method: Male Syrian gold Hamster at ˜10 weeks were maintained adlibitum on standard hamster chow and water. […] Example 3 for topical delivery was prepared as a solution in a vehicle consisting of 70:30 (Ethanol:propylene glycol) at a concentration of 100 mg/ml. Topical administration of a single dose (5 ul/ear) was applied to hamster ears with a pipette (2-10 ul) tip adhering to 2 minute intervals following the dosing order. The dosing timing allowed for the formulation to spread evenly over an approximate 1 sq cm area and absorb/dry prior to returning the animal to the cage. 1 hour post ACCi dose each animal received an IP injection of ^14C-labeled acetate (ARC0158B diluted in saline) following the 2 minute interval timing format. Each animal received an individually calculated amount of ^14C-acetate based on body weight (0.1 μCi/g in a dosing volume of 2 μl/g). One hour after the ^14C-Acetate injection animals were sacrificed by CO2 asphyxiation.
Liver and ear skin were collected for de novo lipogenesis determinations (^14C incorporation to lipid). Briefly, 2 liver punches totaling ˜400 mg of liver were collected from the bifurcated median lobe of each animal (using a 8 mm diameter Sklar Tru-punch—Sklar Instruments), rinsed with saline and blotted dry. The tissues were placed into pre-weighed in glass tubes (Pyrex 9826-16×125 mm with PTFE lined caps) containing NaOH (1.5 mL of 2.5 M).
Ear skin samples were prepared for analysis in the following manner. One 8 mm distal biopsy punch (using an 8 mm diameter Sklar Tru-punch—Sklar Instruments) (2 per animal) was taken just above the anatomical “V” in the aural cartilage to standardize sample collection area. The punch was then split into 2 layers (anterior and posterior). The anterior (front) surface is retained for analysis. The anterior skin was placed into pre-weighed in glass tubes (Pyrex 9826-16×125 mm with PTFE lined caps) containing NaOH (1.5 mL of 2.5 M).
Upon completion of the study, the liver and ear skin samples in NaOH were weighed and this weight was used to calculate the mass of the tissue collected. The capped tubes were heated in an dry oven (˜60° C.) until the tissue was fully degraded (˜4-6 hr, gentle vortexing 2-3 times during heating). Following degradation and cooling absolute ethanol (2.5 mL) was added to each sample. The tubes were recapped and vigorously mixed (vortexed) for 60 seconds and allowed to settle overnight at RT. Petroleum ether (4.8 mL) was added to each tube, recapped and the samples were vigorous mixed (60 sec). […] Aquasol-2 scintillation fluid (10 mL) (or other compatible scintillation fluid) was added to each vial and after vortexing the samples were counted in an appropriate scintillation counter (e g. Wallac Rack-Beta 1409 LSC). […]

CYP3A, sequence (P08684 2-503): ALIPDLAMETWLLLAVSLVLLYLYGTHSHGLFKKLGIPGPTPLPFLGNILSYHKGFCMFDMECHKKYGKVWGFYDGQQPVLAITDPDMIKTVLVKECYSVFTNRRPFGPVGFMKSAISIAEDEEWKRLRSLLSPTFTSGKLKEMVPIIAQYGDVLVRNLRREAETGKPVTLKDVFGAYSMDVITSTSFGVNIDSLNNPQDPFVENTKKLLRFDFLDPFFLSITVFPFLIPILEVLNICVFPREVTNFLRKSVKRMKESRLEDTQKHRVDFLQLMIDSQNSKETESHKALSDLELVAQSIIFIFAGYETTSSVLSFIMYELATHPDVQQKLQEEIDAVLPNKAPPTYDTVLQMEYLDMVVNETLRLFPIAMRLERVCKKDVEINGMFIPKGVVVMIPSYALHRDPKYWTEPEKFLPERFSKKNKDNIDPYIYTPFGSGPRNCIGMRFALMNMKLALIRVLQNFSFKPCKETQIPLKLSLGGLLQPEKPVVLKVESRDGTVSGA
T1 sequence (P10635 whole entry): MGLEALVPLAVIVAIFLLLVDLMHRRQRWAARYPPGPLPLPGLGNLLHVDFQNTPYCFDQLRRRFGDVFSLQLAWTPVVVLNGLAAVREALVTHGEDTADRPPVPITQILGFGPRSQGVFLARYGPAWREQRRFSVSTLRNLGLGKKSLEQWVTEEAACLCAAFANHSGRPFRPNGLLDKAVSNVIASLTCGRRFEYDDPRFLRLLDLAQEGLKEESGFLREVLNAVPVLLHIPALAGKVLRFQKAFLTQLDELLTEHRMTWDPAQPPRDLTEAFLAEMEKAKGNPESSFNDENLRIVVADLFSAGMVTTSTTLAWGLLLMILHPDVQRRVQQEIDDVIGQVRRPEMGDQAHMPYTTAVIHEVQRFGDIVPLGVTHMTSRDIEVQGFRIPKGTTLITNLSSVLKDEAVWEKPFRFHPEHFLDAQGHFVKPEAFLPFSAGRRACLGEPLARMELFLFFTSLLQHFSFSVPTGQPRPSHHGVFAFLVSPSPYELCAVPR
T2 sequence (P33261 whole entry): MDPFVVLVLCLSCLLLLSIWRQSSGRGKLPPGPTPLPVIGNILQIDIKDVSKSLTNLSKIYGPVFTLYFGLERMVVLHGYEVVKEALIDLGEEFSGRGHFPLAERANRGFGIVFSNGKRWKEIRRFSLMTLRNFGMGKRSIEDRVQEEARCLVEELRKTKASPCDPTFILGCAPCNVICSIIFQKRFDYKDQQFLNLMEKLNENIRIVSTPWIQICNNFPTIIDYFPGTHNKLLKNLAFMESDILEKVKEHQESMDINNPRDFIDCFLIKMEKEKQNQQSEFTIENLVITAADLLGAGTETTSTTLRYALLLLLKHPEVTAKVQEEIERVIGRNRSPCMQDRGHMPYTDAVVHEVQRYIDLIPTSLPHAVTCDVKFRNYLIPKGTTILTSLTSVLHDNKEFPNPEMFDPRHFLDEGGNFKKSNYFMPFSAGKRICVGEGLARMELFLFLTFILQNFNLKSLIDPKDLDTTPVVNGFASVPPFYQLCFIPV

| SMILES | IC50 (CYP2D6) [µM] | IC50 (CYP2C19) [µM] | IC50 (CYP2B6) [µM] | IC50 [1] [µM] | suppression of DNL in healthy human volunteers [2] | exposures (AUC and Cmax) vs. dose [3] | effect of food on absorption ([3]; po) | frequency of adverse events vs. dose and duration ([3]; po) | IC50 (CYP3A) [µM] | incorporation of de novo synthesized fatty acids in liver [4] | incorporation of de novo synthesized fatty acids in skin [4] |
| --- | --- | --- | --- | --- | --- | --- | --- | --- | --- | --- | --- |
| Cc1nc2ccc(C(=O)N3CCC4(CC3)CC(=O)c3c(cnn3C(C)C)C4)cc2[nH]1 [Example 1, 1-isopropyl-1′-(2-methyl-1H-benzo[d]imidazole-5-carbonyl)-4,6-dihydrospiro[indazole-5,4′-piperidin]-7(1H)-one] | > 30 | > 30 | > 30 | 0.098 | up to 80% | increased dose-proportionally | modestly decreased the rate but not the extent | no dose- or duration-related increase | > 30 |  |  |
| CC(C)n1ncc2c1C(=O)CC1(CCN(C(=O)c3ccc4ccc(N)nc4c3)CC1)C2 [Example 3, 1′-(2-aminoquinoline-7-carbonyl)-1-isopropyl-4,6-dihydrospiro[indazole-5,4′-piperidin]-7(1H)-one] |  |  |  |  |  |  |  |  |  | failed to inhibit | failed to inhibit |
